{"source": "patent US11931424B2", "about": "“Combination MCL-1 inhibitors with anti-body drug conjugates” (Gilead Sciences, Inc., priority 2021, dated 2024)", "test_system": "panel of breast cancer cell lines", "assay": "Compound A with targeted agents and chemotherapies, 72-hour in vitro proliferation assays", "type": "cell-based", "conditions": "72-hour proliferation", "key": {"[1]": {"conditions": "AU565 cell line, compound A × partner"}, "[2]": {"conditions": "BT-20 cell line, compound A × partner"}, "[3]": {"conditions": "CAL-51 cell line, compound A × partner"}, "[4]": {"conditions": "CAL-85-1 cell line, compound A × partner"}, "[5]": {"conditions": "CAL-120 cell line, compound A × partner"}, "[6]": {"conditions": "CAL-148 cell line, compound A × partner"}, "[7]": {"conditions": "CAMA-1 cell line, compound A × partner"}, "[8]": {"conditions": "DU-4475 cell line, compound A × partner"}, "[9]": {"conditions": "EVSA-T cell line, compound A × partner"}}, "note": "Structures can show the parent of a compound that is named as a salt.", "data": [{"smiles": "Nc1ccn([C@@H]2O[C@H](CO)[C@@H](O)C2(F)F)c(=O)n1", "note": "[Gemcitabine Hydrochloride]", "values": [{"measurement": "Best CI", "setting": "[1]", "value": 0.56}, {"measurement": "Bliss Volume", "setting": "[1]", "value": 10.13}, {"measurement": "HSA volume", "setting": "[1]", "value": 3.57}, {"measurement": "Loewe Volume", "setting": "[1]", "value": 2.71}, {"measurement": "Synergy Score", "setting": "[1]", "value": 9.40}, {"measurement": "Best CI", "setting": "[2]", "value": 0.70}, {"measurement": "Bliss Volume", "setting": "[2]", "value": 4.35}, {"measurement": "HSA volume", "setting": "[2]", "value": 4.94}, {"measurement": "Loewe Volume", "setting": "[2]", "value": 3.32}, {"measurement": "Synergy Score", "setting": "[2]", "value": 11.12}, {"measurement": "Best CI", "setting": "[3]", "value": 0.47}, {"measurement": "Bliss Volume", "setting": "[3]", "value": 3.26}, {"measurement": "HSA volume", "setting": "[3]", "value": 3.22}, {"measurement": "Loewe Volume", "setting": "[3]", "value": 3.49}, {"measurement": "Synergy Score", "setting": "[3]", "value": 5.10}, {"measurement": "Best CI", "setting": "[4]", "value": 0.58}, {"measurement": "Bliss Volume", "setting": "[4]", "value": 9.98}, {"measurement": "HSA volume", "setting": "[4]", "value": 8.91}, {"measurement": "Loewe Volume", "setting": "[4]", "value": 7.81}, {"measurement": "Synergy Score", "setting": "[4]", "value": 10.96}, {"measurement": "Best CI", "setting": "[5]", "value": 0.21}, {"measurement": "Bliss Volume", "setting": "[5]", "value": "−5.00"}, {"measurement": "HSA volume", "setting": "[5]", "value": "−5.87"}, {"measurement": "Loewe Volume", "setting": "[5]", "value": "−4.98"}, {"measurement": "Synergy Score", "setting": "[5]", "value": 0.88}, {"measurement": "Best CI", "setting": "[6]", "value": 0.36}, {"measurement": "Bliss Volume", "setting": "[6]", "value": 19.19}, {"measurement": "HSA volume", "setting": "[6]", "value": 20.88}, {"measurement": "Loewe Volume", "setting": "[6]", "value": 20.22}, {"measurement": "Synergy Score", "setting": "[6]", "value": 35.99}, {"measurement": "Best CI", "setting": "[7]", "value": 0.06}, {"measurement": "Bliss Volume", "setting": "[7]", "value": 26.55}, {"measurement": "HSA volume", "setting": "[7]", "value": 18.50}, {"measurement": "Loewe Volume", "setting": "[7]", "value": 18.89}, {"measurement": "Synergy Score", "setting": "[7]", "value": 40.36}, {"measurement": "Bliss Volume", "setting": "[8]", "value": "−3.76"}, {"measurement": "HSA volume", "setting": "[8]", "value": "−3.58"}, {"measurement": "Loewe Volume", "setting": "[8]", "value": "−2.68"}, {"measurement": "Synergy Score", "setting": "[8]", "value": 0.17}, {"measurement": "Best CI", "setting": "[9]", "value": 1.07}, {"measurement": "Bliss Volume", "setting": "[9]", "value": 9.65}, {"measurement": "HSA volume", "setting": "[9]", "value": 2.02}, {"measurement": "Loewe Volume", "setting": "[9]", "value": 1.29}, {"measurement": "Synergy Score", "setting": "[9]", "value": 5.11}, {"measurement": "Best CI", "setting": "HCC38, compound A × partner", "value": 0.51}, {"measurement": "Bliss Volume", "setting": "HCC38, compound A × partner", "value": 21.72}, {"measurement": "HSA volume", "setting": "HCC38, compound A × partner", "value": 8.18}, {"measurement": "Loewe Volume", "setting": "HCC38, compound A × partner", "value": 6.75}, {"measurement": "Synergy Score", "setting": "HCC38, compound A × partner", "value": 14.50}, {"measurement": "Best CI", "setting": "HCC70, compound A × partner", "value": 0.26}, {"measurement": "Bliss Volume", "setting": "HCC70, compound A × partner", "value": 18.66}, {"measurement": "HSA volume", "setting": "HCC70, compound A × partner", "value": 18.52}, {"measurement": "Loewe Volume", "setting": "HCC70, compound A × partner", "value": 17.52}, {"measurement": "Synergy Score", "setting": "HCC70, compound A × partner", "value": 26.37}, {"measurement": "Best CI", "setting": "HCC1143, compound A × partner", "value": 0.15}, {"measurement": "Bliss Volume", "setting": "HCC1143, compound A × partner", "value": 4.32}, {"measurement": "HSA volume", "setting": "HCC1143, compound A × partner", "value": 8.39}, {"measurement": "Loewe Volume", "setting": "HCC1143, compound A × partner", "value": 7.81}, {"measurement": "Synergy Score", "setting": "HCC1143, compound A × partner", "value": 9.41}, {"measurement": "Best CI", "setting": "HCC1569, compound A × partner", "value": 0.68}, {"measurement": "Bliss Volume", "setting": "HCC1569, compound A × partner", "value": 3.74}, {"measurement": "HSA volume", "setting": "HCC1569, compound A × partner", "value": 6.80}, {"measurement": "Loewe Volume", "setting": "HCC1569, compound A × partner", "value": 6.28}, {"measurement": "Synergy Score", "setting": "HCC1569, compound A × partner", "value": 5.52}, {"measurement": "Best CI", "setting": "HCC1806, compound A × partner", "value": 0.13}, {"measurement": "Bliss Volume", "setting": "HCC1806, compound A × partner", "value": 17.89}, {"measurement": "HSA volume", "setting": "HCC1806, compound A × partner", "value": 18.06}, {"measurement": "Loewe Volume", "setting": "HCC1806, compound A × partner", "value": 17.74}, {"measurement": "Synergy Score", "setting": "HCC1806, compound A × partner", "value": 30.81}, {"measurement": "Best CI", "setting": "HCC1937, compound A × partner", "value": 0.45}, {"measurement": "Bliss Volume", "setting": "HCC1937, compound A × partner", "value": 2.34}, {"measurement": "HSA volume", "setting": "HCC1937, compound A × partner", "value": 0.77}, {"measurement": "Loewe Volume", "setting": "HCC1937, compound A × partner", "value": 2.36}, {"measurement": "Synergy Score", "setting": "HCC1937, compound A × partner", "value": 2.33}, {"measurement": "Best CI", "setting": "HCC1954, compound A × partner", "value": 0.28}, {"measurement": "Bliss Volume", "setting": "HCC1954, compound A × partner", "value": 3.78}, {"measurement": "HSA volume", "setting": "HCC1954, compound A × partner", "value": 5.17}, {"measurement": "Loewe Volume", "setting": "HCC1954, compound A × partner", "value": 5.09}, {"measurement": "Synergy Score", "setting": "HCC1954, compound A × partner", "value": 7.13}, {"measurement": "Best CI", "setting": "HCC2218, compound A × partner", "value": 0.36}, {"measurement": "Bliss Volume", "setting": "HCC2218, compound A × partner", "value": 5.46}, {"measurement": "HSA volume", "setting": "HCC2218, compound A × partner", "value": 4.02}, {"measurement": "Loewe Volume", "setting": "HCC2218, compound A × partner", "value": 2.80}, {"measurement": "Synergy Score", "setting": "HCC2218, compound A × partner", "value": 6.54}, {"measurement": "Best CI", "setting": "HDQ-P1, compound A × partner", "value": 0.40}, {"measurement": "Bliss Volume", "setting": "HDQ-P1, compound A × partner", "value": "−3.49"}, {"measurement": "HSA volume", "setting": "HDQ-P1, compound A × partner", "value": "−0.19"}, {"measurement": "Loewe Volume", "setting": "HDQ-P1, compound A × partner", "value": 0.42}, {"measurement": "Synergy Score", "setting": "HDQ-P1, compound A × partner", "value": 2.05}, {"measurement": "Best CI", "setting": "HMC-1-8, compound A × partner", "value": 0.19}, {"measurement": "Bliss Volume", "setting": "HMC-1-8, compound A × partner", "value": 24.97}, {"measurement": "HSA volume", "setting": "HMC-1-8, compound A × partner", "value": 9.34}, {"measurement": "Loewe Volume", "setting": "HMC-1-8, compound A × partner", "value": 8.40}, {"measurement": "Synergy Score", "setting": "HMC-1-8, compound A × partner", "value": 17.19}, {"measurement": "Best CI", "setting": "JIMT-1, compound A × partner", "value": 0.05}, {"measurement": "Bliss Volume", "setting": "JIMT-1, compound A × partner", "value": 4.37}, {"measurement": "HSA volume", "setting": "JIMT-1, compound A × partner", "value": 3.74}, {"measurement": "Loewe Volume", "setting": "JIMT-1, compound A × partner", "value": 3.50}, {"measurement": "Synergy Score", "setting": "JIMT-1, compound A × partner", "value": 1.80}, {"measurement": "Synergy Score", "setting": "MCF7 cells, Compound A × partner agent", "value": 11.61}]}]}
